Results reported in patent US11788061B2, “Method for producing mesenchymal stem cells that inhibit proliferation of cancer cells” (priority 2016, dated 2023).

What was measured:
Type in all cases: cell-based, human
Vit.C-MSCs [1] = assay: Evaluation of toxicity of aspirin on Vit.C-MSCs (cck-8); conditions: aspirin concentration of 5 mM or less, 24 hours, cck-8 absorbance at 450 nm
Experimental: The Vit.C-MSCs cultured in a medium containing vitamin C of Example 1 were seeded on a 96-well cell culture plate at a concentration of 1×10^4 cells/plate, and then incubated overnight for cell adherence and stabilization. Then, the cells were cultured in a fresh RKCM-N medium, that is, keratinocyte-SFM containing 5% FBS, 2 mM NAC, 0.2 mM ascorbic acid, 0.09 mM calcium, 5 ng/ml rEGF, 5 μg/ml insulin and 74 ng/ml hydrocortisone, supplemented with aspirin in various concentrations of 0.005 mM, 0.001 mM, 0.05 mM, 0.1 mM, 0.5 mM, 1 mM, 5 mM and 10 mM, for 24 hours. A cck-8 (cell counting Kit-8, Dojindo) solution (10 μl/100 μl) was added to each well and reacted for 2 hours, and the absorbance at 450 nm was measured using a plate reader (Lonza).

Vit.C-MSCs [2] = assay: Characteristics of Vit.C-MSCs cultured in aspirin-containing medium (microscope, Luna automated cell counter); conditions: aspirin concentration of 1 mM or less, 24 hours
Experimental: The Vit.C-MSCs cultured in a medium containing vitamin C of Example 1 were incubated for 2 days for adherence and stabilization. Then, the Vit.C-MSCs were cultured in fresh RKCM-N medium supplemented with concentrations of 0.1 mM, 0.5 mM, 1 mM and 10 mM of aspirin for 24 hours. The cell morphologies of Vit.C-MSCs by aspirin were monitored with an […] (100× magnification, Leica DMIL) (FIG. 2), and the proliferation rate, viability and cell size were analyzed using a Luna automated cell counter (Logoy) (FIG. 3).

[3] = tested on: CD marker expression on the stem cell surface; assay: Surface CD marker expression by FACS, overall statement; conditions: 0.1 mM, 0.5 mM and 1 mM of aspirin, 24 hours
Experimental: The Vit.C-MSCs cultured in a medium containing vitamin C were cultured for 2 days for adherence and stabilization, and were cultured in fresh RKCM-N media supplemented with aspirin at concentrations of 0.1 mM, 0.5 mM and 1 mM for 24 hours. The CD marker expression on the stem cell surface in the following Table 2 was compared between two types of MSCs, that is, Vit.C-MSCs and ASP-Vit.C-MSCs cultured in aspirin using FACS.

CC(=O)Oc1ccccc1C(=O)O [aspirin]
cytotoxicity of Vit.C-MSCs (Vit.C-MSCs [1]): almost no cytotoxicity | cell size of stem cells (Vit.C-MSCs [2]): did not affect | morphology of stem cells (Vit.C-MSCs [2]): did not affect | proliferation rate of stem cells (Vit.C-MSCs [2]): did not affect | viability of stem cells (Vit.C-MSCs [2]): did not affect | CD marker expression on the stem cell surface [3]: not changed
